Reference: PMC3513622 (Antiviral research, 2012)
Where two headings read alike, the source gives them in different places.

How the values were obtained:
[1] = tested on: EBV early protein EA-D; conditions: for EA-D expression (immunoblot) / level of hyperphosphorylated form of EA-D (top band): 24 hours after induction; for viral reactivation assessed by expression of EA-D, in words: concentration not stated at the place (Fig. 2: 1 and 10μM)
[2] = tested on: Akata cells
[3] = tested on: Epstein-Barr virus (EBV); conditions: for IC50: IgG induction, 0.0005-30μM, EBV genomes by qPCR
[4] = biological target: T1, EBV-encoded protein kinase (EBV-PK, BGLF4) (Epstein-Barr virus, UniProt P13288); assay: In vitro kinase assay of GST-BGLF4; type: biochemical; conditions: 10μM inhibitor, MBP substrate, 50μM ATP, filter binding
T1 sequence (P13288 1-429): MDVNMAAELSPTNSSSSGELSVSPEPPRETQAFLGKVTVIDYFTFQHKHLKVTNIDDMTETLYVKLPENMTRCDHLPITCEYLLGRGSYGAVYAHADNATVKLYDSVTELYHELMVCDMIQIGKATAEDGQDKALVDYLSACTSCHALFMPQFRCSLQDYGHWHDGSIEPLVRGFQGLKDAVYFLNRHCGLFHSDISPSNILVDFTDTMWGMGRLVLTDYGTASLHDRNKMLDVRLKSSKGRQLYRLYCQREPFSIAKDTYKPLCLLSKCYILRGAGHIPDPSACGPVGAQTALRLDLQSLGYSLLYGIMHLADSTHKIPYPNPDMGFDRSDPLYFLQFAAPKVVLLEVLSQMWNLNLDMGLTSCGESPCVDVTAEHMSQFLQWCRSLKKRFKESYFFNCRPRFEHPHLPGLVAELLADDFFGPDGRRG

[5] = tested on: Akata cells; assay: Cell viability of Akata cells, modified MTS assay; conditions: Akata cells, 48 hours, 0.0005-30μM, modified MTS assay
[6] = tested on: human cytomegalovirus (HCMV) pUL97 protein kinase; conditions: 2002, cited from earlier work
[7] = tested on: purified EBV-PK; conditions: ref Gershburg et al., 2004; Marschall et al., 2002; cited from earlier work
[8] = in vitro; conditions: human
[9] = tested on: Epstein-Barr virus (EBV); assay: microbe, parasite or virus in culture; conditions: human gammaherpesvirus 4, Akata, 48 h
[10] = Cell viability of Akata cells, modified MTS assay; conditions: human, latently EBV-infected Akata cells
[11] = tested on: EBV; conditions: ref Gershburg et al., 2004; Wang et al., 2009; Zacny et al., 1999; cited from earlier work
[12] = 10μM PKI, Akata cells, 48 hours after IgG induction

Cc1ccc(S(=O)(=O)/C=C/C#N)cc1 [BAY 11-7082]
EA-D expression (immunoblot) ([1]; 1μM PKI, Fig. 2B): intermediate | level of hyperphosphorylated form of EA-D (top band) ([1]; 1μM PKI, Fig. 2B): more pronounced effect on the levels of the hyperphosphorylated form of EA-D | expression levels of housekeeping genes (β-actin) ([1]; 10μM, Fig. 2A): loss of β-actin | CC50 [2]: 2640 nM | effect on EBV replication in words ([3]; 10μM PKI, Akata cells, 48 hours after IgG induction, listed as BAY-11-7082): effective in inhibiting the EBV replication | effect on EBV replication in words ([3]; 10μM PKI, Akata cells, 48 hours after IgG induction, listed as Bay 11-7082): inhibited viral replication | IC50 ([3]; Akata cells, 48 hours): 208 nM

COC(=O)[C@@]1(O)C[C@H]2O[C@]1(C)n1c3ccccc3c3c4c(c5c6ccccc6n2c5c31)C(=O)NC4 [K252A]
EA-D expression (immunoblot) ([1]; 1μM PKI, Fig. 2B): no EA-D expression was detected | viral reactivation assessed by expression of EA-D, in words [1]: block expression of EBV early protein EA-D | CC50 [2]: 80 nM | inhibition of GST/EBV-PK activity relative to DMSO [4]: about 75% | TI (therapeutic index, CC50/IC50 ratio) [3]: 6 | inhibition of EBV replication relative to DMSO treatment ([3]; 10μM PKI, Akata cells, 48 hours after IgG induction, mean ± sem of 3 experiments): 92±6% | IC50 ([3]; Akata cells, 48 hours): 14 nM

N#CC(=C(/N)Sc1ccccc1N)/C(C#N)=C(/N)Sc1ccccc1N [U-0126]
EA-D expression (immunoblot) ([1]; 1μM PKI, Fig. 2B): did not affect the expression of EA-D | EA-D expression (immunoblot) ([1]; 10μM PKI, Fig. 2A): remain relatively high | viral reactivation assessed by expression of EA-D, in words [1]: did not inhibit viral reactivation | CC50 [2]: 7380 nM | TI (therapeutic index, CC50/IC50 ratio) [3]: 13 | effect on EBV replication in words [3, 12]: effective in inhibiting the EBV replication | IC50 ([3]; Akata cells, 48 hours): 552 nM

CC(C)(C)c1cc(C=C(C#N)C#N)cc(C(C)(C)C)c1O [Tyrphostin 9]
EA-D expression (immunoblot) ([1]; 1μM PKI, Fig. 2B): did not affect the expression of EA-D | CC50 [5]: 573 nM | TI (therapeutic index, CC50/IC50 ratio) ([3]; Akata cells, 48 hours): 3 | IC50 ([3]; Akata cells, 48 hours): 217 nM

N#CCCn1c2ccccc2c2c3c(c4c5ccccc5[nH]c4c21)C(=O)NC3 [NGIC-I, non-glycosidic indolocarbazole I]
concentration inhibiting pUL97 autophosphorylation activity ([6]; ref Marschall et al.): 0.5 μM | effect on activity of purified EBV-PK [7]: did not inhibit

Nc1nc2c(ncn2COCCO)c(=O)[nH]1 [ACV, acyclovir]
viability at 48 h, 50 μM [8]: 89 ± 4% | reduction of viral replication relative to DMSO treatment ([3]; 50μM ACV, Akata cells, 48 hours after IgG induction): 88±6%

O=c1cc(N2CCOCC2)oc2c(-c3ccccc3)cccc12 [LY 294002]
EA-D expression (immunoblot) ([1]; 1μM PKI, Fig. 2B): intermediate | level of hyperphosphorylated form of EA-D (top band) ([1]; 1μM PKI, Fig. 2B): more pronounced effect on the levels of the hyperphosphorylated form of EA-D | CC50 [8]: 6160 nM | IC50 [9]: 1840 nM | TI (therapeutic index, CC50/IC50 ratio) [3]: 3

CC(=O)c1c(O)c(C)c(O)c(Cc2c(O)c3c(c(C(=O)/C=C/c4ccccc4)c2O)OC(C)(C)C=C3)c1O [Rottlerin]
EA-D expression (immunoblot) ([1]; 1μM PKI, Fig. 2B): did not affect the expression of EA-D | CC50 at 48 h [8]: 1000 nM | IC50 [9]: 983 nM | effect on EBV replication in words [3, 12]: effective in inhibiting the EBV replication | TI (therapeutic index, CC50/IC50 ratio) ([3]; Akata cells, 48 hours): 1

CO[C@@H]1[C@H](N(C)C(=O)c2ccccc2)C[C@H]2O[C@]1(C)n1c3ccccc3c3c4c(c5c6ccccc6n2c5c31)C(=O)NC4 [PKC-412]
EA-D expression (immunoblot) ([1]; 1μM PKI, Fig. 2B): no EA-D expression was detected | viral reactivation assessed by expression of EA-D, in words [1]: block expression of EBV early protein EA-D | CC50 at 48 h [8]: 56 nM | IC50 [9]: 31 nM | effect on EBV replication in words ([3]; 10μM PKI, Akata cells, 48 hours after IgG induction, listed as PKC412): effective in inhibiting the EBV replication

O=C1Cc2c([nH]c3ccc(Br)cc23)-c2ccccc2N1 [Kenpaullone]
EA-D expression (immunoblot) ([1]; 1μM PKI, Fig. 2B): did not affect the expression of EA-D | IC50 [9]: 681 nM | CC50 at 48 h [10]: 5130 nM | TI (therapeutic index, CC50/IC50 ratio) [3]: 8 | effect on EBV replication in words [3, 12]: effective in inhibiting the EBV replication

CC(C)Nc1nc2cc(Cl)c(Cl)cc2n1[C@H]1O[C@@H](CO)[C@H](O)[C@@H]1O [MBV, maribavir]
effect on EBV replication [11]: inhibits EBV replication | concentration inhibiting pUL97 autophosphorylation activity ([6]; ref Biron et al., Hamirally et al., 2009): 1 μM | effect on activity of purified EBV-PK [7]: did not inhibit

O=c1c(O)c(-c2ccc(O)c(O)c2)oc2cc(O)cc(O)c12 [quercetin]
effect on EBV replication in words [3, 12]: lack of activity

Cn1cc(C2=C(c3cn(CCCSC(=N)N)c4ccccc34)C(=O)NC2=O)c2ccccc21 [Ro 31-8220]
EA-D expression (immunoblot) ([1]; 1μM PKI, Fig. 2B): did not affect the expression of EA-D | level of hyperphosphorylated form of EA-D (top band) ([1]; 1μM PKI, Fig. 2B): increased level of this form | CC50 [5]: 1150 nM | effect on EBV replication in words [3, 12]: effective in inhibiting the EBV replication | TI (therapeutic index, CC50/IC50 ratio) ([3]; Akata cells, 48 hours): 3 | IC50 ([3]; Akata cells, 48 hours): 398 nM

COC[C@H]1OC(=O)c2coc3c2[C@@]1(C)C1=C(C3=O)[C@@H]2CCC(=O)[C@@]2(C)C[C@H]1OC(C)=O [Wortmannin]
EA-D expression (immunoblot) ([1]; 1μM PKI, Fig. 2B): no EA-D expression was detected | viral reactivation assessed by expression of EA-D, in words [1]: inhibited EA-D expression | CC50 at 48 h [8]: 4690 nM | IC50 [9]: 367 nM | TI (therapeutic index, CC50/IC50 ratio) [3]: 13 | effect on EBV replication in words [3, 12]: effective in inhibiting the EBV replication

CN[C@@H]1C[C@H]2O[C@@](C)([C@@H]1OC)n1c3ccccc3c3c4c(c5c6ccccc6n2c5c31)C(=O)NC4 [Staurosporine]
viral reactivation assessed by expression of EA-D, in words [1]: block expression of EBV early protein EA-D | CC50 [8]: 4 nM | effect on EBV replication in words [3, 12]: inhibited viral replication | effect on EBV replication in words ([3]; 10μM PKI, Akata cells, 48 hours after IgG induction, listed as Staurosporin): significantly reduced the EBV genome copy numbers

Nc1ncnc2c1c(I)cn2[C@@H]1O[C@H](CO)[C@@H](O)[C@H]1O [5-Iodotubercidin]
EA-D expression (immunoblot) ([1]; 1μM PKI, Fig. 2B): did not affect the expression of EA-D | effect on EBV replication in words [3, 12]: effective in inhibiting the EBV replication | IC50 ([3]; Akata cells, 48 hours): 890 nM

COC(=O)/C=C/c1cc(O)ccc1O [Erbstatin analog]
EA-D expression (immunoblot) ([1]; 1μM PKI, Fig. 2B): did not affect the expression of EA-D | viral reactivation assessed by expression of EA-D, in words [1]: did not inhibit viral reactivation | effect on EBV replication in words [3, 12]: inhibited EBV replication in cells | IC50 ([3]; Akata cells, 48 hours): 2370 nM
